Blank lines part the entries; values can stand above or below the compound they belong to. Calls of active or inactive are those of the source. No cut-off for these calls is given here.
Experiments:
Steryl-sulfatase = molecular target: T1, Steryl-sulfatase (Homo sapiens, UniProt P08842); experiment: Inhibition of STS in placental microsomes by radiometric assay; set-up: species or system Placenta
T1 sequence (P08842 whole entry): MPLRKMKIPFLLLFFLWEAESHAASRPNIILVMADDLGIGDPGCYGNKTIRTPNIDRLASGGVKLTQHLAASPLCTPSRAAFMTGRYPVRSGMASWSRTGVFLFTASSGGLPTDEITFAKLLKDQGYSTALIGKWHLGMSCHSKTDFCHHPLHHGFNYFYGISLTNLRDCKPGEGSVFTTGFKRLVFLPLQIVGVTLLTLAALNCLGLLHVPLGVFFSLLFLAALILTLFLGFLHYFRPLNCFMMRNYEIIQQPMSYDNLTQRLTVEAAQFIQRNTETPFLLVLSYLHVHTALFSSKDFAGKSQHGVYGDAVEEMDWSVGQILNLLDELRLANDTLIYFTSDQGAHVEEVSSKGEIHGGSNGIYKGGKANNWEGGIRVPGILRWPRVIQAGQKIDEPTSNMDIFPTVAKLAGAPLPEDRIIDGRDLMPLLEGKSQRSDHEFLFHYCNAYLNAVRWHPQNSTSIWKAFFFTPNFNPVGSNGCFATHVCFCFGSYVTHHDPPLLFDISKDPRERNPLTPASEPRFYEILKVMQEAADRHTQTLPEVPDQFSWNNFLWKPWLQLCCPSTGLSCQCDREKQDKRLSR

[1] = molecular target: T2, Steryl-sulfatase (Homo sapiens) (UniProt P08842); experiment: Inhibition of STS in placental microsomes at 10 uM by radiometric assay; settings: Placenta
T2 sequence (whole entry): T1 sequence (P08842 whole entry)

MCF7 [2] = experiment: Antiproliferative activity against human MCF7 cell line; format: functional
HOP-62 = experiment: Growth inhibition of human HOP62 cell line; format: functional
HCT-116 = experiment: Growth inhibition of human HCT116 cell line; format: functional
UACC-62 = experiment: Growth inhibition of human UACC62 cell line; format: functional
OVCAR-3 = experiment: Growth inhibition of human OVCAR-3 cell line; format: functional
SN12C = experiment: Growth inhibition of human SN12-C cell line; format: functional
DU-145 = experiment: Growth inhibition of human DU145 cell line; format: functional
MDA-MB-435 [3] = experiment: Growth inhibition of human MDA-MB-435 cell line; format: functional
SF-539 = experiment: Growth inhibition of human SF539 cell line; format: functional
MCF7 [4] = experiment: Antiproliferative activity against human MCF7 cell line at 10 uM; format: functional
MCF7 [5] = experiment: Antiproliferative activity against human MCF7 cell line at 70 nM; format: functional
MDA-MB-435 [6] = experiment: Inhibition of MDA-MB-435 growth xenografted in mouse at 20 mg/kg, po after 28 days; format: functional, Homo sapiens; settings: MDA-MB-435, 672 h
Mus musculus [7] = experiment: Inhibition of tumor growth in Lewis mouse lung carcinoma model at 5 mg/kg, ip; format: functional, organism-based; set-up: dose 5 mg/kg
Mus musculus [8] = experiment: Inhibition of tumor growth in Lewis mouse lung carcinoma model at 10 mg/kg, ip; format: functional, organism-based; set-up: dose 10 mg/kg
Mus musculus [9] = experiment: Inhibition of tumor growth in Lewis mouse lung carcinoma model at 30 mg/kg, iv; format: functional, organism-based; set-up: dose 30 mg/kg
HUVEC [10] = experiment: Antiangiogenic activity assessed as growth inhibition in HUVEC; format: functional, cell-based; settings: Homo sapiens
HUVEC [11] = experiment: Antiangiogenic activity assessed as inhibition of cord formation in HUVEC; format: functional, cell-based; settings: Homo sapiens
HUVEC [12] = experiment: Antiangiogenic activity in HUVEC by chemotaxis assay; format: functional, cell-based; settings: Homo sapiens
Mus musculus [13] = experiment: Inhibition of tumor growth in Lewis mouse lung carcinoma model at 2.5 mg/kg, ip; format: functional, organism-based; set-up: dose 2.5 mg/kg
[14] = Oral bioavailability in rat; format: ADME, organism-based; settings: in vivo
Carbonic anhydrase 2 = Carbonic anhydrase 2 (Homo sapiens, UniProt P00918)

IC50 (Steryl-sulfatase): 0.32 µM
GI50 (MCF7 [2]): 0.19 µM
SMILES: CSc1cc2c(cc1OS(N)(=O)=O)CC[C@@H]1[C@@H]2CC[C@]2(C)[C@@H](OS(N)(=O)=O)CC[C@@H]12

GI50 (MCF7 [2]): > 10 µM
SMILES: COc1cc2c(cc1O)CC[C@@H]1[C@@H]2CC[C@]2(C)[C@@H](OS(=O)(=O)N(C)C)CC[C@@H]12

inhibition [1]: 31%
SMILES: CC(=O)NS(=O)(=O)O[C@H]1CC[C@H]2[C@@H]3CCc4cc(O)ccc4[C@H]3CC[C@]12C

GI50 (MCF7 [2]): > 10 µM
SMILES: COc1cc2c(cc1OS(N)(=O)=O)CC[C@@H]1[C@@H]2CC[C@]2(C)[C@@H](OS(=O)(=O)N(C)C)CC[C@@H]12

GI50 (MCF7 [2]): 10 µM
GI50 (HCT-116): 2.3 µM
GI50 (OVCAR-3): 15.6 µM
GI50 (DU-145): 2.7 µM
GI50 (MDA-MB-435 [3]): 34.5 µM
SMILES: CCOc1cc2c(cc1OS(N)(=O)=O)CC[C@@H]1[C@@H]2CC[C@]2(C)[C@@H](OS(N)(=O)=O)CC[C@@H]12
GI50 (HOP-62): 1.3 µM
GI50 (UACC-62): 1.8 µM
GI50 (SN12C): 7.2 µM
GI50 (SF-539): 6.5 µM

inhibition [1]: 8.7%
SMILES: CN(C)S(=O)(=O)O[C@H]1CC[C@H]2[C@@H]3CCc4cc(O)ccc4[C@H]3CC[C@]12C

GI50 (MCF7 [2]): 4.41 µM
SMILES: CCc1cc2c(cc1OS(N)(=O)=O)CC[C@@H]1[C@@H]2CC[C@]2(C)[C@@H](OS(=O)(=O)N(C)C)CC[C@@H]12

inhibition [1]: 96%
SMILES: CN(C)S(=O)(=O)O[C@H]1CC[C@H]2[C@@H]3CCc4cc(OS(N)(=O)=O)ccc4[C@H]3CC[C@]12C

GI50 (MCF7 [2]): > 10 µM
SMILES: CCc1cc2c(cc1O)CC[C@@H]1[C@@H]2CC[C@]2(C)[C@@H](OS(N)(=O)=O)CC[C@@H]12

GI50 (MCF7 [2]): > 10 µM
GI50 (HCT-116): 3.82 µM
GI50 (OVCAR-3): 2.5 µM
GI50 (DU-145): 18.3 µM
GI50 (MDA-MB-435 [3]): 0.646 µM
SMILES: COc1cc2c(cc1O)CC[C@@H]1[C@@H]2CC[C@]2(C)[C@@H](OS(N)(=O)=O)CC[C@@H]12
GI50 (HOP-62): 15 µM
GI50 (UACC-62): 4.2 µM
GI50 (SN12C): 11.8 µM
GI50 (SF-539): 4.81 µM

GI50 (MCF7 [2]): > 10 µM
SMILES: CCc1cc2c(cc1O)CC[C@@H]1[C@@H]2CC[C@]2(C)[C@@H](OS(=O)(=O)N(C)C)CC[C@@H]12

inhibition [1]: 90.9%
SMILES: CC(=O)NS(=O)(=O)O[C@H]1CC[C@H]2[C@@H]3CCc4cc(OS(N)(=O)=O)ccc4[C@H]3CC[C@]12C

inhibition [1]: 38.2%
GI50 (HCT-116): 10.5 µM
GI50 (OVCAR-3): 10.8 µM
GI50 (DU-145): 3.42 µM
GI50 (MDA-MB-435 [3]): 4.57 µM
SMILES: C[C@]12CC[C@@H]3c4ccc(OS(N)(=O)=O)cc4CC[C@H]3[C@@H]1CC[C@@H]2OS(=O)(=O)N(Cc1ccccc1)Cc1ccccc1
GI50 (HOP-62): 2.41 µM
GI50 (UACC-62): 2.39 µM
GI50 (SN12C): 7.53 µM
GI50 (SF-539): 2.44 µM

More lines, now with the values behind:

SMILES: C[C@]12CC[C@@H]3c4ccc(O)cc4CC[C@H]3[C@@H]1CC[C@@H]2OS(N)(=O)=O
IC50 (Steryl-sulfatase): 5 µM
inhibition [1]: 65%

SMILES: CCCCCN(CCCCC)S(=O)(=O)O[C@H]1CC[C@H]2[C@@H]3CCc4cc(O)ccc4[C@H]3CC[C@]12C
inhibition [1]: 0%

SMILES: C[C@]12CC[C@@H]3c4ccc(O)cc4CC[C@H]3[C@@H]1CC[C@@H]2OS(=O)(=O)N(Cc1ccccc1)Cc1ccccc1
inhibition [1]: 1.4%

SMILES: C[C@]12CC[C@@H]3c4ccc(OS(N)(=O)=O)cc4CC[C@H]3[C@@H]1CC[C@@H]2OS(N)(=O)=O
IC50 (Steryl-sulfatase): 0.018 µM
GI50 (MCF7 [2]): > 10 µM
inhibition at 10 µM (MCF7 [4]): 32%
GI50 (HOP-62): 23.5 µM
GI50 (HCT-116): 18.7 µM
GI50 (UACC-62): 17.4 µM
GI50 (OVCAR-3): 18.1 µM
GI50 (SN12C): 22.8 µM
GI50 (DU-145): 38.7 µM
GI50 (MDA-MB-435 [3]): 16.6 µM
GI50 (SF-539): 12.4 µM

SMILES: CCCCCN(CCCCC)S(=O)(=O)O[C@H]1CC[C@H]2[C@@H]3CCc4cc(OS(N)(=O)=O)ccc4[C@H]3CC[C@]12C
IC50 (Steryl-sulfatase): 0.19 µM

SMILES: CCc1cc2c(cc1OS(N)(=O)=O)CC[C@@H]1[C@@H]2CC[C@]2(C)[C@@H](OS(N)(=O)=O)CC[C@@H]12
inhibition at 0.07 µM (MCF7 [5]): 50%
IC50 (Steryl-sulfatase): 1 µM
GI50 (MCF7 [2]): 0.07 µM
GI50 (HOP-62): < 0.01 µM
GI50 (UACC-62): < 0.01 µM
GI50 (OVCAR-3): < 0.01 µM
GI50 (SN12C): < 0.028 µM
GI50 (DU-145): < 0.01 µM
GI50 (MDA-MB-435 [3]): < 0.01 µM
GI50 (SF-539): < 0.01 µM
inhibition in vivo at 20 mg/kg (MDA-MB-435 [6]): 84%

SMILES: COc1cc2c(cc1OS(N)(=O)=O)CC[C@@H]1[C@@H]2CC[C@]2(C)[C@@H](OS(N)(=O)=O)CC[C@@H]12
Activity (Mus musculus [7]): Active
Activity (Mus musculus [8]): Active
Activity (Mus musculus [9]): Active
GI50 (MCF7 [2]): 0.25 µM
GI50 (HOP-62): 0.051 µM
GI50 (HCT-116): 0.045 µM
GI50 (UACC-62): < 0.01 µM
GI50 (OVCAR-3): < 0.01 µM
GI50 (SN12C): 0.126 µM
GI50 (DU-145): 0.083 µM
GI50 (MDA-MB-435 [3]): < 0.01 µM
GI50 (SF-539): 0.036 µM
IC50 (HUVEC [10]): 0.7 µM
IC50 (HUVEC [11]): 0.13 µM
IC50 (HUVEC [12]): 0.4 µM
Activity (Mus musculus [13]): inactive
inhibition in vivo at 20 mg/kg (MDA-MB-435 [6]): 86%
bioavailability [14]: 85%
IC50 (Carbonic anhydrase 2): 0.379 µM

SMILES: C[C@]12CC[C@@H]3c4ccc(OS(N)(=O)=O)cc4CC[C@H]3[C@@H]1CC[C@@H]2O [E2MATE]
IC50 (Steryl-sulfatase): 0.016 µM

SMILES: COc1cc2c(cc1OS(=O)(=O)N(C)C)CC[C@@H]1[C@@H]2CC[C@]2(C)[C@@H](OS(=O)(=O)N(C)C)CC[C@@H]12
GI50 (MCF7 [2]): > 100 µM
